Assay results from patent publication US5621133A (priority 1995, dated 1997).
Where a name gives a salt, the structure may show the parent alone. Read-outs that look alike come from different tables or passages of the source.

How the values were obtained:
dopamine D-2 receptor = dopamine D-2 receptor (Rattus norvegicus, UniProt P61169); experiment: biochemical; assay type: binding; conditions: rat caudate, [125I]-p-aminophenylethyl spiroperidol; read-out: D-2 Ki
Procedure: Homogenized rat caudate was the source of the D-2 receptors. […] The molar affinity of the compound for the receptor binding site was calculated by the same method used for the D-1 receptor assay, assuming a competitive interaction between the compound and the radiolabeled ligand.

[1] = system: striatal dopamine receptors; experiment: Rotation behavior assay of in vivo activity (6-hydroxydopamine lesioned rat rotational model); conditions: for ED50 s.c. (rotation behavior): injected subcutaneously
dopamine D-1 receptor [2] = conditions: for Intrinsic Activity (adenylate cyclase assay): dopamine = 100, goldfish retina or rat striatum; for EC50: read-out: EC50 (agonist activity in adenylate cyclase assay), tissue from goldfish retina or rat striatum
Procedure: In order to determine agonist activity, cell-free tissue homogenates are incubated in an ionic buffer solution containing ATP and the compound being evaluated. The tissue was obtained from either goldfish retina or rat striatum.

dopamine D-1 receptor [3] = target: dopamine D-1 receptor (Rattus norvegicus, UniProt P18901); experiment: biochemical; conditions: D-1 Ki, rat caudate, [125I]SCH-23982
Chain of dopamine D-1 receptor (Rattus norvegicus, UniProt P18901) (P18901 whole entry): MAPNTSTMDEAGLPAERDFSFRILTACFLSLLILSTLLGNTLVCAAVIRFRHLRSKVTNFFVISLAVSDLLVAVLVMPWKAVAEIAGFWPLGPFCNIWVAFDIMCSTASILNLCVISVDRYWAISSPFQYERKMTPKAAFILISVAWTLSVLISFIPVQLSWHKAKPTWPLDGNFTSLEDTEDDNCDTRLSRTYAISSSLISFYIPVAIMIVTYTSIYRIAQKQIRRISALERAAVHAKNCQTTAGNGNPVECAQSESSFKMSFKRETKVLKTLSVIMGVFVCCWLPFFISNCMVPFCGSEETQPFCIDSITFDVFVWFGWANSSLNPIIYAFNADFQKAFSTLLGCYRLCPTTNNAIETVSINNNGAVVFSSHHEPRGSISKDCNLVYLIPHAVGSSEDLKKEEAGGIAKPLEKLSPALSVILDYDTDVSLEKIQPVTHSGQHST
From the text: The compounds compete with the radiolabeled ligand for occupancy of the receptors and the molar potency of each compound was quantified.
The Ki values are inversely proportional to the affinity of the compound for the receptor.

Chain of dopamine D-2 receptor (P61169 whole entry): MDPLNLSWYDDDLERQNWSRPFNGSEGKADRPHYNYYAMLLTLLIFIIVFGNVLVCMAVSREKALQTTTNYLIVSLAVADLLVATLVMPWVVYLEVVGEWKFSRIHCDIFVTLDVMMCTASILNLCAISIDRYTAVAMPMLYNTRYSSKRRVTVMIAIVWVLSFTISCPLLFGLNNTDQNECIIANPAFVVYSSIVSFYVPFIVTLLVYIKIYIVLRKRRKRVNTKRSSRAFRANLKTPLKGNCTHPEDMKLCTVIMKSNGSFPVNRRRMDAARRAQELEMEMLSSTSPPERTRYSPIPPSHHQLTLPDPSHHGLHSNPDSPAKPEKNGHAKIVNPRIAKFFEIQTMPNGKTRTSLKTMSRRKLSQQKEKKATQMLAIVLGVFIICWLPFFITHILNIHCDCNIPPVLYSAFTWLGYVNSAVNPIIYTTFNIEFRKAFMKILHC

Row | SMILES | Ki (dopamine D-2 receptor) [nM] | ED50 s.c. (rotation behavior) [1] [µmol/kg] | Intrinsic Activity (adenylate cyclase assay) (dopamine D-1 receptor [2]) | EC50 (dopamine D-1 receptor [2]) [nM] | Ki (dopamine D-1 receptor [3]) [nM] | ED50 oral (rotation behavior) [1] [µmol/kg] | mean rotations over 360 minutes ([1]; dose = 143 micromoles/kg p.o.) | mean rotations over 20 hours ([1]; dose = 143 micromoles/kg p.o.) | Intrinsic Activity (adenylate cyclase assay) (dopamine D-1 receptor [2]; Hydrobromide) | EC50 (dopamine D-1 receptor [2]; Hydrobromide) [nM]
1 | CC[C@H]1Cc2c(ccc(O)c2O)[C@@H](CN)O1 (relative stereo) [Example 51] | 3900 | 7 | 88 | 180 | 235 |  |  |  |  | 
2 | NC[C@H]1O[C@@H](COc2ccccc2)Cc2c1ccc(O)c2O (relative stereo) [Example 55] | 1500 | 13.6 | 51 | 24 | 380 |  |  |  |  | 
3 | CCCCCCCC[C@@H]1Cc2c(ccc(O)c2O)[C@H](CN)O1 (relative stereo) [Example 64] | 540 | 58 | 80 | 390 | 640 |  |  |  |  | 
4 | NC[C@@H]1O[C@H](CC2CCCCC2)Cc2c1ccc(O)c2O (relative stereo) [Example 88] | 1500 | 0.61 | 133 | 12 | 130 | 32 |  |  |  | 
5 | CC(C)C[C@@H]1Cc2c(ccc(O)c2O)[C@H](CN)O1 (relative stereo) [Example 89] | 1400 | 0.12 | 130 | 7 | 21 | 7 |  |  |  | 
6 | NC[C@@H]1O[C@H](CC23CC4CC(CC(C4)C2)C3)Cc2c1ccc(O)c2O (relative stereo) [Example 90] | 900 | 0.6 | 128 | 22 | 76 | 8 |  |  |  | 
7 | CC(C)(C)C[C@H]1Cc2c(ccc(O)c2O)[C@@H](CN)O1 (relative stereo) [Example 104] | > 10000 | 0.13 | 110 | 54 | 37 | 5 |  |  |  | 
8 | C=CC(C)[C@H]1Cc2c(ccc(O)c2O)[C@@H](CN)O1 (relative stereo) [Example 105] | 1000 | 0.17 | 110 | 9 | 17 |  |  |  |  | 
9 | CNC[C@@H]1O[C@H](CC23CC4CC(CC(C4)C2)C3)Cc2c1ccc(O)c2O (relative stereo) [Example 139] | 3200 | 0.4 | 129 | 9.7 | 450 | 23 |  |  |  | 
10 | CNC[C@H]1O[C@@H](CC(C)(C)C)Cc2c1ccc(O)c2O (relative stereo) [Example 146] | 1400 | 0.12 | 82 | 120 | 49 | 7 |  |  |  | 
11 | CC1([C@@H]2Cc3c(ccc(O)c3O)[C@H](CN)O2)CCCCC1 (relative stereo) [Example 222] | 3200 | 0.3 | 87 | 40 | 10 |  |  |  |  | 
12 | NC[C@@H]1O[C@H](C2(c3ccccc3)CCCCC2)Cc2c1ccc(O)c2O (relative stereo) [Example 223] | 2700 | > 3 | 52 | 70 | 40 |  |  |  |  | 
13 | CNC[C@@H]1O[C@H](C2(c3ccccc3)CCCCC2)Cc2c1ccc(O)c2O (relative stereo) [Example 225] | 1700 | > 3 | 76 | 130 | 90 |  |  |  |  | 
14 | CNC[C@@H]1O[C@H](C2(C)CCCCC2)Cc2c1ccc(O)c2O (relative stereo) [Example 226] | 1500 | > 1 | 89 | 40 | 20 |  |  |  |  | 
15 | CN(C)C[C@@H]1O[C@H](c2ccccc2)Cc2c1ccc(O)c2O (relative stereo) [Example 227] | > 10000 | 0.045 | 94 | 370 | 20 |  |  |  |  | 
16 | CN(C)C[C@@H]1O[C@H](C2CCCCC2)Cc2c1ccc(O)c2O (relative stereo) [Example 228] | > 10000 | 0.1 | 71 | 280 | 30 |  |  |  |  | 
17 | C=CCNC[C@H]1O[C@@H](c2ccccc2)Cc2c1ccc(O)c2O (stereo in doubt) [Example 126] | 6600 | 0.16 | 94 | 46 | 160 | 28 |  |  |  | 
18 | CC(=O)Oc1ccc2c(c1OC(C)=O)CC(c1ccccc1)C=C2CNC(=O)[C@H](C)NC(=O)[C@H](C)N (some centres unmarked) [Example 4, 5,6-Bis(acetoxy)-1-(alanyl-alanyl)aminomethyl-3-phenyl-3,4-dihydronaphthalene Hydrochloride] |  |  |  |  |  |  | 3329 |  |  | 
19 | CC(=O)Oc1ccc2c(c1OC(C)=O)CC(c1ccccc1)C=C2CNC(=O)OC(C)OC(C)=O (centres unmarked) [Example 6] |  |  |  |  |  |  |  | 2564 |  | 

Row | SMILES | Ki (dopamine D-2 receptor) [nM] | ED50 s.c. (rotation behavior) [1] [µmol/kg] | Intrinsic Activity (adenylate cyclase assay) (dopamine D-1 receptor [2]) | EC50 (dopamine D-1 receptor [2]) [nM] | Ki (dopamine D-1 receptor [3]) [nM] | ED50 oral (rotation behavior) [1] [µmol/kg] | mean rotations over 360 minutes ([1]; dose = 143 micromoles/kg p.o.) | mean rotations over 20 hours ([1]; dose = 143 micromoles/kg p.o.) | Intrinsic Activity (adenylate cyclase assay) (dopamine D-1 receptor [2]; Hydrobromide) | EC50 (dopamine D-1 receptor [2]; Hydrobromide) [nM]
20 | CC(=O)Oc1ccc2c(c1OC(C)=O)CC(c1ccccc1)C=C2CNC(=O)[C@H](C)N (some centres unmarked) [Example 10] |  |  |  |  |  |  | 1516 |  |  | 
21 | CSCC[C@H](N)C(=O)NCC1=CC(c2ccccc2)Cc2c1ccc(OC(C)=O)c2OC(C)=O (some centres unmarked) [Example 14] |  |  |  |  |  |  | 3653 |  |  | 
22 | C[C@H](N)C(=O)N[C@@H](C)C(=O)NCC1=CC(c2ccccc2)Cc2c1ccc(OC(=O)c1ccccc1)c2OC(=O)c1ccccc1 (some centres unmarked) [Example 15] |  |  |  |  |  |  | 1760 |  |  | 
23 | Cl.NCC1=CC(c2ccccc2)Cc2c1ccc(OC(=O)c1ccccc1)c2OC(=O)c1ccccc1 (centres unmarked) [Example 16, 1-Aminomethyl-5,6-bis(benzoyloxy)-3-phenyl-3,4-dihydronaphthalene Hydrochloride] |  |  |  |  |  |  | 4844 |  |  | 
24 | NCC1OC2(CCCCCC2)Cc2c1ccc(O)c2O (centres unmarked) [Example 93] | > 10000 | 0.9 | 113 | 110 | 470 |  |  |  |  | 
25 | CNC[C@@H]1O[C@H](C(C)(C)C)Cc2c1ccc(O)c2O.Cl [Example 112, [1R,3S]3-t-butyl-5,6-dihydroxy-1-methylaminomethyl-3,4-dihydro-1H-2-benzopyran hydrochloride] | 1500 | 0.10 | 124 | 8 | 38 | 1.0 |  |  |  | 
26 | CNC[C@@H]1O[C@H](c2ccccc2)Cc2c1ccc(O)c2O [Example 138] | 2200 | 0.15 | 157 | 51 | 3 |  |  |  |  | 
27 | CNC[C@@H]1O[C@H](C23CC4CC(CC(C4)C2)C3)Cc2c1cc(F)c(O)c2O [Example 145] | 12000 | 0.31 | 49 | 38 | 67 |  |  |  |  | 
28 | CN(C)C[C@@H]1O[C@H](C(C)(C)C)Cc2c1ccc(O)c2O [Example 147] | > 10000 | 0.05 | 89 | 66 | 400 |  |  |  |  | 
29 | CN(C)C[C@@H]1O[C@H](C23CC4CC(CC(C4)C2)C3)Cc2c1ccc(O)c2O [Example 148] | 4600 | 0.12 | 79 | 22 | 64 | 11 |  |  |  | 
30 | Oc1ccc2c(c1O)CC1(CCCCCC1)C1=C2CNCC1 [Example 199, Spiro[cycloheptane-1,5'-(1',2',3',4',5',6'-hexahydrobenzo[h]isoquinoline)]-7',8'-diol Hydrobromide] | 1400 | 1.5 |  |  | 54 | 31 |  |  | 83 | 33
31 | CNCC1OC(CC(C)C)Cc2c1ccc(O)c2O (centres unmarked) [Example 219] | 1600 | 0.09 |  |  | 4000 |  |  |  |  | 
32 | NCC1CC2(CCCCCCCC2)Cc2c1ccc(O)c2O (centres unmarked) [Example 236] | > 10000 |  | 36 | 700 | 4400 |  |  |  |  | 
33 | NCC1CC2(CCCCCCCCC2)Cc2c1ccc(O)c2O (centres unmarked) [Example 237] | > 10000 |  | 34 | 1900 | 6500 |  |  |  |  | 
34 | CCCCC1Cc2c(ccc(O)c2O)C2=C1CCNC2 (centres unmarked) [Example 243] | 3000 |  | 83 | 950 | 70 |  |  |  |  | 
35 | CN1CCC2=C(C1)c1ccc(O)c(O)c1CC2C(C)(C)C (centres unmarked) [Example 244] | 1200 | > 3 |  |  | 240 |  |  |  |  | 
36 | CN1CCC2=C(C1)c1ccc(O)c(O)c1CC21CCCCCCC1 [Example 250] | 1600 | 0.51 |  |  | 150 |  |  |  |  | 
37 | CCN1CCC2=C(C1)c1ccc(O)c(O)c1CC21CCCCCC1 [Example 251] | 1200 |  | 41 | 470 | 530 |  |  |  |  | 
